The values below come from US5840917A, “Phosphorylamides, their preparation and use” (Takeda Chemical Industries, Ltd., priority 1995, dated 1998).

Assay [1] concerns Helicobacter pylori (CPY-433 F4). Briefly: Bacteria eradication effect of urease inhibitor (in vivo) in infected mice. To be noted: male ICR mice, 10 mg/kg p.o. twice daily, lansoprazole 30 mg/kg s.c. once daily before first dose.
Assay [2] concerns the target T1, Helicobacter pylori-derived urease (Helicobacter pylori, UniProt P69996).
T1 construct: an urease solution prepared from Helicobacter pylori; endogenous in cells
Briefly: Screening of urease inhibitors (ammonia yield from urea). The assay is classed as biochemical. On the procedure: Screening of Urease Inhibitors
One hundred (100) μl of 100 mM Bis-Tris buffer (pH 6.5) and 60 μl of an urease solution prepared from Helicobacter pylori were added to 20 μl of a test drug dissolved in 0.1% dimethylformamide solution. The mixture was incubated at room temperature for 30 minutes, and then 20 μl of 100 mM urea was added. The mixture was kept at room temperature for 10 minutes, and then the yielded ammonia in the incubation mixture was measured using a commercial test kit (Ammonia Test Wako®; Wako Pure Chemical). The percent inhibition against the yield of ammonia in the solvent addition group was calculated to obtain the IC50 value.

The test system of assay [3] is Helicobacter pylori CPY 433 F4. Briefly: Bacteria eradication effect of flurofamide in infected mice. The settings on record: male Crj:ICR mice; 100 mg/kg p.o. twice daily, 7 days, in 0.5% methylcellulose containing 1% sodium bicarbonate; * p<0.05 (chi^2 test); control 0/4. The assay is classed as in vivo. Here is the method: Bacteria Eradication Effect of Flurofamide
To 5-week-aged male Crj:ICR mice previously fasted for 30 hours, Helicobacter pylori CPY 433 F4 was inoculated intragastrically at 10^7 CFU per mouse. One week after the infection, a test compound which was suspended in 0.5% methylcellulose containing 1% sodium bicarbonate was orally administered at 100 mg/kg twice daily for 7 days. On the next day after the final administration, the stomach of the infected mouse was excised and homogenated. A series of 10-fold dilutions were inoculated to modified Skirrow medium supplemented with activated charcoal and incubated at 37° C. for 4 days under slightly aerobic conditions. The bacteria eradication effect was determined by investigating whether bacterial growth was seen or not.

Where [4] appears, read: 4 days for therapy, control 0/5.

The structures appear in SMILES notation. Read-outs that look alike come from different tables or passages of the source.

As a reminder, the IC50 is the concentration that inhibits the measured activity by half.

T1 sequence (P69996 whole entry, looked up): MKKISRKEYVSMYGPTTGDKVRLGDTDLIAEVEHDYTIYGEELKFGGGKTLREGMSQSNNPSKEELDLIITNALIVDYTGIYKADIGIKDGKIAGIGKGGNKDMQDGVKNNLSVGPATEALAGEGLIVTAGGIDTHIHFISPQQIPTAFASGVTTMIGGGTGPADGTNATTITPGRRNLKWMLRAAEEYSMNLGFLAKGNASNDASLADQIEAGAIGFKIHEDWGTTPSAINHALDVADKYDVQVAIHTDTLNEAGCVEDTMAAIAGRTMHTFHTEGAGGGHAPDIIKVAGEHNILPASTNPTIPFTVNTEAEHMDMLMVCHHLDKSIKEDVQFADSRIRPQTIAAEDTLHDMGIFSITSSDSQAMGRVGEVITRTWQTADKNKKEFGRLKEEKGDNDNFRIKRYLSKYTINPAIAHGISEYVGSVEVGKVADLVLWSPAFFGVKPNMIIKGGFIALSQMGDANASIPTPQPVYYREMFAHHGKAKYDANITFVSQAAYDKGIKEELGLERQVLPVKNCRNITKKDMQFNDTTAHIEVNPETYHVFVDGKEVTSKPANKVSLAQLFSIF

Turning to `NP(N)(=O)NC(=O)COc1ccc(F)cc1` [Example 54, N-(Diaminophosphinyl)-4-fluorophenoxyacetamide], the “Eradication Rate” value in assay [1] (3 days for therapy) was 1/5. In addition, half-maximal inhibition in assay [2] (IC50) was put at 3.3 nM.
In the case of `NP(N)(=O)NC(=O)c1coc(Br)c1` [Example 41, N-(Diaminophosphinyl)-5-bromo-3-furancarboxamide], in assay [1] (2 days for therapy), the “Eradication Rate” value is reported as 1/5. This compound also returned an IC50 in assay [2] of 7.7 nM.
As for `N#Cc1ccc(C(=O)NP(N)(N)=O)cc1` [Reference Example 17, N-(Diaminophosphinyl)-4-cyanobenzamide], the “Eradication Rate” value in assay [1] (setting [4]) is 1/5. Also, inhibition in assay [2] was half-maximal at 5.4 nM (IC50).
In the case of `NP(N)(=O)NC(=O)c1ccoc1Cl` [Example 45, N-(Diaminophosphinyl)-2-chloro-3-furancarboxamide], the “Eradication Rate” value in assay [1] (2 days for therapy) is listed as 1/5. Moreover, inhibition in assay [2] was half-maximal at 1.4 nM (IC50).
Regarding `NP(N)(=O)NC(=O)c1sccc1C(F)F` [Example 19, N-(Diaminophosphinyl)-3-difluoromethyl-2-thiophenecarboxamide], the “Eradication Rate” value in assay [1] (2 days for therapy) is reported as 1/5. Moreover, the midpoint of inhibition in assay [2], the IC50, lay at 4.6 nM.
Taken in the same sequence, the figures for `Cc1sccc1C(=O)NP(N)(N)=O` [Example 15, N-(Diaminophosphinyl)-2-methyl-3-thiophenecarboxamide] were 2/5 and 1.7 nM.
Turning to `NP(N)(=O)NC(=O)c1ccc([N+](=O)[O-])o1` [Reference Example 30, N-(Diaminophosphiny1)-5-nitro-2-furancarboxamide], the “Eradication Rate” value in assay [1] (3 days for therapy) was 2/5. For the same compound, the IC50 in assay [2] is 4.3 nM.
As to `CC(=O)c1ccc(C(=O)NP(N)(N)=O)s1` [Example 17, N-(Diaminophosphinyl)-5-acetyl-2-thiophenecarboxamide], the “Eradication Rate” value in assay [1] (2 days for therapy) is given as 1/5. The compound also showed an IC50 in assay [2] of 8.2 nM.
Taken in the same sequence, the figures for `CCc1ccc(C(=O)NP(N)(N)=O)o1` [Example 44, N-(Diaminophosphinyl)-5-ethyl-2-furancarboxamide] were 1/5 and 14 nM.
For `NP(N)(=O)NC(=O)c1cccc([N+](=O)[O-])c1` [Reference Example 23, N-(Diaminophosphinyl)-3-nitrobenzamide], the “Eradication Rate” value in assay [1] (setting [4]) was 1/5. The same compound came in with an IC50 in assay [2] of 5.7 nM.
Taken in the same sequence, the figures for `NP(N)(=O)NC(=O)c1ccoc1` [Reference Example 29, N-(Diaminophosphinyl)-3-furancarboxamide] were 2/5 and 5.9 nM.
Taken in the same sequence, the figures for `Cc1ccc(C(=O)NP(N)(N)=O)s1` [Example 3, N-(Diaminophosphinyl)-5-methyl-2-thiophenecarboxamide] were 2/5 and 5.5 nM.
Take `Cc1csc(C(=O)NP(N)(N)=O)c1` [Example 28, N-(Diaminophosphinyl)-4-methyl-2-thiophenecarboxamide]: the “Eradication Rate” value in assay [1] (2 days for therapy) was 1/5. In assay [2], inhibition was half-maximal at 1.5 nM (IC50).
Taken in the same sequence, the figures for `NP(N)(=O)NC(=O)c1cc(Cl)sc1Cl` [Example 25, N-(Diaminophosphinyl)-2,5-dichloro-3-thiophenecarboxamide] were 1/5 and 1.1 nM.
As for `NP(N)(=O)NC(=O)c1ccc(Br)cc1` [Reference Example 22, N-(Diaminophosphinyl)-4-bromobenzamide], the “Eradication Rate” value in assay [1] (setting [4]) is recorded as 1/5. Moreover, the midpoint of inhibition in assay [2], the IC50, lay at 9.3 nM.
For `NP(N)(=O)NC(=O)c1ccsc1` [Example 2, N-(Diaminophosphinyl)-3-thiophenecarboxamide], in that order: 2/5 and 16 nM.
In the case of `N#Cc1ccc(C(=O)NP(N)(N)=O)s1` [Example 12, N-(Diaminophosphinyl)-5-cyano-2-thiophenecarboxamide], in assay [1] (2 days for therapy), the “Eradication Rate” value was 1/5. Further, the IC50 in assay [2] worked out at 3.6 nM.
Turning to `N#Cc1ccsc1C(=O)NP(N)(N)=O` [Example 23, N-(Diaminophosphinyl)-3-cyano-2-thiophenecarboxamide], in assay [1] (2 days for therapy), the “Eradication Rate” value is reported as 1/5. This compound had an IC50 in assay [2] of 2.2 nM.
On to `NP(N)(=O)NC(=O)c1ccc(F)cc1` [Reference Example 1, N-(Diaminophosphinyl)-4-fluorobenzamide, reference compound], for which the “Eradication Rate” value in assay [3] was 4/5. In assay [2] (Bis-Tris pH 6.5, room temperature, 30 min preincubation, 10 min with urea, read-out: IC50, inhibitory effect against Helicobacter pylori-derived urease), the IC50 was found to be 5 nM.
Consider `NP(N)(=O)NC(=O)c1coc(Cl)c1` [Example 46, N-(Diaminophosphinyl)-5-chloro-3-furancarboxamide], for which the “Eradication Rate” value in assay [1] (2 days for therapy) is 1/5. The compound also came in with an IC50 in assay [2] of 5.7 nM.
In the case of `Cc1occc1C(=O)NP(N)(N)=O` [Example 40, N-(Diaminophosphinyl)-2-methyl-3-furancarboxamide], the “Eradication Rate” value in assay [1] (2 days for therapy) is recorded as 1/5. For the same compound, the IC50 in assay [2] is 7.9 nM.
Turning to `NP(N)(=O)NC(=O)c1ccco1` [Reference Example 25, N-(Diaminophosphinyl)-2-furancarboxamide], the “Eradication Rate” value in assay [1] (setting [4]) is 1/5. In assay [2], this compound returned an IC50 of 1.9 nM.
As for `NP(N)(=O)NC(=O)c1ccsc1Br` [Example 26, N-(Diaminophosphinyl)-2-bromo-3-thiophenecarboxamide], the “Eradication Rate” value in assay [1] (2 days for therapy) is recorded as 2/5. The IC50 in assay [2] was found to be 1.3 nM.
For `NP(N)(=O)NC(=O)c1csc(Br)c1` [Example 11, N-(Diaminophosphinyl)-5-bromo-3-thiophenecarboxamide], in that order: 1/5 and 4.2 nM.
For `NP(N)(=O)NC(=O)c1csc(Cl)c1` [Example 30, N-(Diaminophosphinyl)-5-chloro-3-thiophenecarboxamide], in that order: 1/5 and 4.3 nM.
